Experimental data from publication PMC9851200, “Multiparameter phenotypic screening for endogenous TFEB and TFE3 translocation identifies novel chemical series modulating lysosome function” (Autophagy, 2022).

Key:
Assay type in all cases: binding
[1] = molecular target: T1, kinases (KINOMEscan panel) (Homo sapiens, UniProt Q59H18); conditions: kinase TNNI3K; NEW KINOMEscan
T1 sequence (Q59H18 1-835): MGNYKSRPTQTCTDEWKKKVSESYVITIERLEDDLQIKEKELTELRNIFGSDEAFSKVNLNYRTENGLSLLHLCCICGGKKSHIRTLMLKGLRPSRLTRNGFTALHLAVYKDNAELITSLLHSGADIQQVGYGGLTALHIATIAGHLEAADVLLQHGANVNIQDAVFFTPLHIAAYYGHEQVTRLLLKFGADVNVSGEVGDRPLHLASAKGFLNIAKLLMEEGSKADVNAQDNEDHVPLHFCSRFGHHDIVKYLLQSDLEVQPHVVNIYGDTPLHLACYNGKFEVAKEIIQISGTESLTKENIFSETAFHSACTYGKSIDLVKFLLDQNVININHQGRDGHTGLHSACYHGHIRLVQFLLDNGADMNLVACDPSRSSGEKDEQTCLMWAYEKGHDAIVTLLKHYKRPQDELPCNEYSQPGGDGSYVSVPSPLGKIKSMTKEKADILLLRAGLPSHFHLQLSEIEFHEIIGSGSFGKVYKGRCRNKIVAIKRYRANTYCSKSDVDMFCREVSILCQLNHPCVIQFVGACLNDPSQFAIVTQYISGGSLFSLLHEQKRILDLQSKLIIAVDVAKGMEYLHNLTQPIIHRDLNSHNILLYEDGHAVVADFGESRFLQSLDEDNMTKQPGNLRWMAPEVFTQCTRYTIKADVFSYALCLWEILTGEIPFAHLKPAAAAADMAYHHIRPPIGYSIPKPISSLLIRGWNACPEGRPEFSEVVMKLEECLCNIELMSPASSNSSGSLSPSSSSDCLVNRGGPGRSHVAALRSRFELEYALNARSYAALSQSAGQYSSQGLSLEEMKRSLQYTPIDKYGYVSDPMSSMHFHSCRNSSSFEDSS

[2] = molecular target: kinases (KINOMEscan panel) (Homo sapiens, UniProt Q9BWU1); conditions: kinase CDK19; NEW KINOMEscan
kinases (KINOMEscan panel) (Homo sapiens, UniProt Q9BWU1), sequence (Q9BWU1 whole entry): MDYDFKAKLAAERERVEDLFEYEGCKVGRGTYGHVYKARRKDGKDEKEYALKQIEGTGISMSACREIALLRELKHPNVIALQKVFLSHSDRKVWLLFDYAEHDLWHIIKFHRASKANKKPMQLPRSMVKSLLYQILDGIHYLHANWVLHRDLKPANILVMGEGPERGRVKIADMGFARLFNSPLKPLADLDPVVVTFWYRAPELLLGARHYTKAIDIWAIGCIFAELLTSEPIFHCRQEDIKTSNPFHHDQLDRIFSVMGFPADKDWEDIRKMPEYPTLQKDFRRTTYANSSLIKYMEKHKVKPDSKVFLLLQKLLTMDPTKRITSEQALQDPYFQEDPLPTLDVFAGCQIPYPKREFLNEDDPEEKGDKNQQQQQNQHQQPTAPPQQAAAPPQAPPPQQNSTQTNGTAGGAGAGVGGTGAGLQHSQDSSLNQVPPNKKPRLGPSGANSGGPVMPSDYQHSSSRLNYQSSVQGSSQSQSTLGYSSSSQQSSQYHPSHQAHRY

[3] = molecular target: kinases (KINOMEscan panel) (Homo sapiens, UniProt P42336); conditions: kinase PIK3CA; NEW KINOMEscan
kinases (KINOMEscan panel) (Homo sapiens, UniProt P42336), sequence (P42336 whole entry): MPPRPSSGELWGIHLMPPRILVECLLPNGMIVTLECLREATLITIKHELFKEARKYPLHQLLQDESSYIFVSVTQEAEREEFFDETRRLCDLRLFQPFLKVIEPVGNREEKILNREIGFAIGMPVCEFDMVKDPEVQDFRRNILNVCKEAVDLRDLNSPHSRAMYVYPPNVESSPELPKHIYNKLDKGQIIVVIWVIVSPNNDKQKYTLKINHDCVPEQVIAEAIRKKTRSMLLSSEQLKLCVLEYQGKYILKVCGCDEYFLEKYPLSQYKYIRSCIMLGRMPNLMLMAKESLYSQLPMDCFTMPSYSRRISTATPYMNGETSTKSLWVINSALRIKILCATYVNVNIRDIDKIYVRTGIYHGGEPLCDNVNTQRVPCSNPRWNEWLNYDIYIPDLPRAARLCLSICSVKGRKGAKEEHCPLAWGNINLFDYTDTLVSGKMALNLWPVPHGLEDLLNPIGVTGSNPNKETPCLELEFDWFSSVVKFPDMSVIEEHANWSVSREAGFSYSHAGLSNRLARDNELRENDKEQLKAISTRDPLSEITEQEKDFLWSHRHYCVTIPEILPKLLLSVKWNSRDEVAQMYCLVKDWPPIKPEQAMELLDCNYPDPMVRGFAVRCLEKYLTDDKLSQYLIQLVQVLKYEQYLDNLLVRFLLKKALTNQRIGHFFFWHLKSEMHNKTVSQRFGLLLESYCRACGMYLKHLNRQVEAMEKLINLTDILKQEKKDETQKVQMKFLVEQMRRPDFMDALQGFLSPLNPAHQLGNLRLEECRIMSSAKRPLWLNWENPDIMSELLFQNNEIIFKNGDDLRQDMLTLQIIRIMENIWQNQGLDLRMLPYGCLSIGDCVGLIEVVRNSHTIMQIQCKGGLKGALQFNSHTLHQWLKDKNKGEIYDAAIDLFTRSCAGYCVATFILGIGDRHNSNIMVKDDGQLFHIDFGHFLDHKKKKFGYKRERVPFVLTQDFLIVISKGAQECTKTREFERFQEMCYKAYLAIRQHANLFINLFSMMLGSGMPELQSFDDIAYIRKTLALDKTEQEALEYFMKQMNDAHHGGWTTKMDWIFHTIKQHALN

[4] = molecular target: kinases (KINOMEscan panel) (Homo sapiens, UniProt Q14004)
kinases (KINOMEscan panel) (Homo sapiens, UniProt Q14004), sequence (Q14004 whole entry): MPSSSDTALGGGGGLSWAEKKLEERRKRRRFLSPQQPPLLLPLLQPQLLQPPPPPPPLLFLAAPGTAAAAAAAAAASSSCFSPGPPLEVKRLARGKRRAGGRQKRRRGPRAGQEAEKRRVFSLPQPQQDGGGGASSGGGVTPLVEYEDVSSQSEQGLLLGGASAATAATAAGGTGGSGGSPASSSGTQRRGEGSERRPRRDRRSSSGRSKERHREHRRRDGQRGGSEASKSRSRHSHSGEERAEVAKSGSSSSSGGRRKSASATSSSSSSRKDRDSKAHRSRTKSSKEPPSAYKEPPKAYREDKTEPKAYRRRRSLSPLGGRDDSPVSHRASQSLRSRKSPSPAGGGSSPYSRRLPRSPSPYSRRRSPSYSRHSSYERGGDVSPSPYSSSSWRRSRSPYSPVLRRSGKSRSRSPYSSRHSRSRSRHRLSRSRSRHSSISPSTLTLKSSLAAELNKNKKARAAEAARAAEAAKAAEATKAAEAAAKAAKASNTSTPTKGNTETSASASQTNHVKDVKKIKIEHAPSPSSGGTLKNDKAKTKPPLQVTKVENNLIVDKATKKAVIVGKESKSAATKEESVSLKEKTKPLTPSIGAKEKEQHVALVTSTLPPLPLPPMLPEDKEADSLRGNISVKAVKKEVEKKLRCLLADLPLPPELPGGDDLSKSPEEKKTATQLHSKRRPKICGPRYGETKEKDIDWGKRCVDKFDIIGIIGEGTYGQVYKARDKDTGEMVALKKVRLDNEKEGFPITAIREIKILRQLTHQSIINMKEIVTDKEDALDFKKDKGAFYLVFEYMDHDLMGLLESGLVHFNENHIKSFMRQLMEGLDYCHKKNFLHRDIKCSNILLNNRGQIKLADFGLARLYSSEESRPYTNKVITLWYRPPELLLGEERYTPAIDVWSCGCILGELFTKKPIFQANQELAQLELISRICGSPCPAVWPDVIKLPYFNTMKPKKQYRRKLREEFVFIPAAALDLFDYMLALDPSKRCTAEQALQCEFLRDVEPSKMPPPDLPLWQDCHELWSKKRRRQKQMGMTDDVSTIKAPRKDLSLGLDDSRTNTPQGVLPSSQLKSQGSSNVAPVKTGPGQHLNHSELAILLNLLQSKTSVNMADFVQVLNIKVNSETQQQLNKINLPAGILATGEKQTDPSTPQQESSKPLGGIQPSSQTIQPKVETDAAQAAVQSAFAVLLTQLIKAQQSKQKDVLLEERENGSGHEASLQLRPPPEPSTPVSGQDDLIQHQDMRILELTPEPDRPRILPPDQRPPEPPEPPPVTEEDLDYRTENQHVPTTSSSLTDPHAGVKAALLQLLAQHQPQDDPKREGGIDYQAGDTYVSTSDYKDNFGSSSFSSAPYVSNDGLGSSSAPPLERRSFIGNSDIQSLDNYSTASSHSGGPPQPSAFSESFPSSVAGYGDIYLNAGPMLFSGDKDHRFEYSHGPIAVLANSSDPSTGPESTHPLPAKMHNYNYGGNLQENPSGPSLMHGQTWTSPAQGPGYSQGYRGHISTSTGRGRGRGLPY

[5] = molecular target: T2, kinases (KINOMEscan panel) (Homo sapiens, UniProt Q14164)
T2 sequence (Q14164 1-716): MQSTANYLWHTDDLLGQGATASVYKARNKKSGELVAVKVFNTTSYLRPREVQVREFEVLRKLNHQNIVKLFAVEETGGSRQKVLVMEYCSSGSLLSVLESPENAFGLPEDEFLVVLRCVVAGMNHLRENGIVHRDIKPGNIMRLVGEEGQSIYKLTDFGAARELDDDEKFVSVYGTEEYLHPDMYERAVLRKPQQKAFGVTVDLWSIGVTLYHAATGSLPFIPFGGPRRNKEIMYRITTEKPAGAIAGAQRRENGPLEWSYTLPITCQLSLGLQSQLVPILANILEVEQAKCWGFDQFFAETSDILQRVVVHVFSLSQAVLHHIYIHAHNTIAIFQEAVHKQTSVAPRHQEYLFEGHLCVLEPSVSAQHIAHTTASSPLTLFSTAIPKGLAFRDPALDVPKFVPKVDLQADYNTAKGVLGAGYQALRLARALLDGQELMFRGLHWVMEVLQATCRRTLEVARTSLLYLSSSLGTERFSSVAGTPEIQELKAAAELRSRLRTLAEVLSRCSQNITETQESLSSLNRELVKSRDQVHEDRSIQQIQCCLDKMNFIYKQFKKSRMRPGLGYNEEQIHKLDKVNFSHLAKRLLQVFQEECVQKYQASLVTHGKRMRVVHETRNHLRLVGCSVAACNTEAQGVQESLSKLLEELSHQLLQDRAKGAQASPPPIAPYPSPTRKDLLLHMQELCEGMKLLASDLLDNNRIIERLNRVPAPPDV

[6] = molecular target: kinases (KINOMEscan panel) (Homo sapiens, UniProt P37023); conditions: ACVRL1; NEW KINOMEscan
kinases (KINOMEscan panel) (Homo sapiens, UniProt P37023), sequence (P37023 22-503): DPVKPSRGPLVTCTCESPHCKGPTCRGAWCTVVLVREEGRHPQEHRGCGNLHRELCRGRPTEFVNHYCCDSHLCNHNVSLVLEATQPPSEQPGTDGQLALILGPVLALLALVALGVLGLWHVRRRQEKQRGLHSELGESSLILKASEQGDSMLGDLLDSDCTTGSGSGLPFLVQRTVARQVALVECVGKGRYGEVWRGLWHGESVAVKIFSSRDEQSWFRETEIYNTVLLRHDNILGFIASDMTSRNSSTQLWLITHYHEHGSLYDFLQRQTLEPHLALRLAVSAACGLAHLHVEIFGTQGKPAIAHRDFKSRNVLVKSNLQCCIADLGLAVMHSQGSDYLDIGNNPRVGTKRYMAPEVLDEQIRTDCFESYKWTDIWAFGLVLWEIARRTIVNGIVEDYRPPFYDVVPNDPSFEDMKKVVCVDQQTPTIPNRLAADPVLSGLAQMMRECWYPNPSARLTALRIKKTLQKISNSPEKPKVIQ

[7] = molecular target: T3, kinases (KINOMEscan panel) (Homo sapiens, UniProt Q13976); conditions: kinase PRKG1; NEW KINOMEscan
T3 sequence (Q13976 1-671): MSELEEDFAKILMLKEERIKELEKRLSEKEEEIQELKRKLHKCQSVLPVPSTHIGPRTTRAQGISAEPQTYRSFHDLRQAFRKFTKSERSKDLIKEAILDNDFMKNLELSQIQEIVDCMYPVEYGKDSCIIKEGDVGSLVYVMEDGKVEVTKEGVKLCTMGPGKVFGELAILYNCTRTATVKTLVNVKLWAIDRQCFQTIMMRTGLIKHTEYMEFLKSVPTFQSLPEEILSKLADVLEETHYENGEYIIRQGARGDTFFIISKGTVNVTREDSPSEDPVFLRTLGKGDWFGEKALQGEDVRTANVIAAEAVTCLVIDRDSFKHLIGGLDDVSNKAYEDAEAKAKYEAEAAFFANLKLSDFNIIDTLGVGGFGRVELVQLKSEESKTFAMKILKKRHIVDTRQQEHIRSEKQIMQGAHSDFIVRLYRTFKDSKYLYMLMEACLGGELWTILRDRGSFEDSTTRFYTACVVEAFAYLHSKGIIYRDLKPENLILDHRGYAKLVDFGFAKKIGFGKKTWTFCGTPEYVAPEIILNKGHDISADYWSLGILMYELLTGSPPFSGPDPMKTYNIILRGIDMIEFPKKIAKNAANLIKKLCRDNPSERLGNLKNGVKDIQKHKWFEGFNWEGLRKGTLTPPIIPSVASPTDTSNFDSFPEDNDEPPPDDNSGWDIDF

[8] = molecular target: kinases (KINOMEscan panel) (Homo sapiens, UniProt Q8N5S9); conditions: CAMKK1; NEW KINOMEscan
[9] = molecular target: kinases (KINOMEscan panel) (Homo sapiens, UniProt P00533, DEL752-759); conditions: EGFR(S752-I759del); NEW KINOMEscan
[10] = molecular target: kinases (KINOMEscan panel) (Homo sapiens, UniProt Q9BVS4); conditions: RIOK2; NEW KINOMEscan
kinases (KINOMEscan panel) (Homo sapiens, UniProt Q9BVS4), sequence (Q9BVS4 whole entry): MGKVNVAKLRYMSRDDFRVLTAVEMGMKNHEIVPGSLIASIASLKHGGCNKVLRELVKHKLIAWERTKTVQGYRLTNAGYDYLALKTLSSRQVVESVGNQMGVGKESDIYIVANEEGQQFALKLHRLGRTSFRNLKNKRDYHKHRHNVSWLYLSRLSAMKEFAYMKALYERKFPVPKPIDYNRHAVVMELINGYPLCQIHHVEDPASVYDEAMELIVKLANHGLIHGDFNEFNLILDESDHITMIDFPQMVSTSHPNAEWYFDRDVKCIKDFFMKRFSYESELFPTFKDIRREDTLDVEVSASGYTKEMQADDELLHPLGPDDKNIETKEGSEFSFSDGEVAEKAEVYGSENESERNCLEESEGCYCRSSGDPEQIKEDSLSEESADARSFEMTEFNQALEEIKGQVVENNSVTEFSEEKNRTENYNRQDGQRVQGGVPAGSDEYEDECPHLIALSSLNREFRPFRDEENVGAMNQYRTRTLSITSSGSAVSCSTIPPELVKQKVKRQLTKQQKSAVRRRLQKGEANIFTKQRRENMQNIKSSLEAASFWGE

[11] = molecular target: kinases (KINOMEscan panel) (Homo sapiens, UniProt Q00536); conditions: kinase CDK16; NEW KINOMEscan
kinases (KINOMEscan panel) (Homo sapiens, UniProt Q00536), sequence (Q00536 whole entry): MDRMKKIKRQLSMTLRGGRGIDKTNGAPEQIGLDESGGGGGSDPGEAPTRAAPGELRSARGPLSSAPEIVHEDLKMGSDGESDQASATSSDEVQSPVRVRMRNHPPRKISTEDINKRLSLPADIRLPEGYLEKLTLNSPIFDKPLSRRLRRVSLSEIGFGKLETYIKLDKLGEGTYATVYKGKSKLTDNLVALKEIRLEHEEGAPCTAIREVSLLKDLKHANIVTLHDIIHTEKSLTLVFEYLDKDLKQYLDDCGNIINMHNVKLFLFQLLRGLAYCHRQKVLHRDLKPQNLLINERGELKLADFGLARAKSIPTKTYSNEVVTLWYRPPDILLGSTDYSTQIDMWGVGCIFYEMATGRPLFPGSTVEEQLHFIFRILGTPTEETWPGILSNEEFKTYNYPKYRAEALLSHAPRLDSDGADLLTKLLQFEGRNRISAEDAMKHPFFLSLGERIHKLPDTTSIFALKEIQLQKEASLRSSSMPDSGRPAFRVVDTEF

SMILES	KINOMEscan TNNI3K [1]	KINOMEscan CDK19 [2]	KINOMEscan PIK3CA [3]	KINOMEscan CDK13 [4]	KINOMEscan IKBKE/IKK-epsilon [5]	KINOMEscan ACVRL1 [6]	KINOMEscan PRKG1 [7]	KINOMEscan CAMKK1 [8]	KINOMEscan EGFR(S752-I759del) [9]	KINOMEscan RIOK2 [10]	KINOMEscan CDK16 [11]
Cc1cccc(-c2nc(Nc3ccc4nn(C)cc4c3)c3ccccc3n2)n1 [NK167]	6	24	0	8	0	4	0	0	0	3	0
Cc1cccc(-c2nc(N(C)c3ccc4ncsc4c3)c3ccccc3n2)n1 [NK-161]	9	4	0	6	0	9	10	9	0	3	0
